Data: US7173004B2, “Macrocyclic isoquinoline peptide inhibitors of hepatitis C virus” (Bristol-Myers Squibb Company, priority 2003, dated 2007)

Each compound was assayed against T1, HCV NS3/4A protease complex, BMS strain (genotype 1a) (UniProt P27958, C1454S/C1711G, species not given/STRAIN_BMS) (assay: Recombinant HCV NS3/4A protease complex FRET peptide assay, BMS strain). Details: NS3/4A BMS strain; activity range symbols.
T1 construct: b1001: DNA encoding the recombinant HCV NS3/4A protease complex (amino acids 1027 to 1711) ... a three-lysine solubilizing tail was added at the 3′-end of the NS4A coding region; fused on or other part: Three-lysine solubilising tail at the C-terminus of NS4A; A His tag is implied by the pET21b vector and Ni-NTA purification
Format: biochemical
In short: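 Recombinant NS3/4A (aa 1027–1711) from H77C, J4L6S or BMS strains, with C1454S and C1711G mutations and three-lysine tail, expressed in E. coli and Ni-NTA/gel-filtration purified to >90%. Inhibition of cleavage of a FRET peptide substrate measured.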

Structure (SMILES)	IC50
CCC(C)(C)OC(=O)NC1CCCCCC=CC2CC2(C(=O)NS(=O)(=O)C2CC2)NC(=O)C2CC(Oc3nccc4ccccc34)CN2C1=O (stereo not shown) [Compound 125]	< 50 nM
COc1ccc2c(OC3CC4C(=O)NC5(C(=O)NS(=O)(=O)C6CC6)CC5C=CCOCCCC(NC(=O)OC5CCCC5)C(=O)N4C3)nc(-c3ccccc3)cc2c1 (stereo not shown) [Compound 99]	< 50 nM
CC(C)(C)OC(=O)NC1CN(C(=O)C2CC2)CCCC=CC2CC2(C(=O)NS(=O)(=O)C2CC2)NC(=O)C2CC(Oc3nccc4ccccc34)CN2C1=O (stereo not shown) [Compound 152]	< 50 nM
CNc1ccc(-c2cc3cc(OC)ccc3c(OC3CC4C(=O)NC5(C(=O)NS(=O)(=O)C6CC6)CC5C=CCOCCCC(NC(=O)OC(C)(C)C)C(=O)N4C3)n2)cc1 (stereo not shown) [Compound 113]	< 50 nM
COc1ccc2c(OC3CC4C(=O)NC5(C(=O)NS(=O)(=O)C6CC6)CC5C=CCCCOCC(NC(=O)NC(C)(C)C)C(=O)N4C3)nc(-c3ccc(N(C)C)cc3)cc2c1 (stereo not shown) [Compound 108]	< 50 nM
CC(C)(C)COC(=O)N1CCCC=CC2CC2(C(=O)NS(=O)(=O)C2CC2)NC(=O)C2CC(Oc3nccc4ccccc34)CN2C(=O)C(NC(=O)OC(C)(C)C)C1 (stereo not shown) [Compound 149]	< 50 nM
COc1ccc2c(OC3CC4C(=O)NC5(C(=O)NS(=O)(=O)C6CC6)CC5C=CCOCCCC(NC(=O)N5CCCC5)C(=O)N4C3)nc(-c3ccccc3)cc2c1 (stereo not shown) [Compound 100]	< 50 nM
COc1ccc2c(OC3CC4C(=O)NC5(C(=O)NS(=O)(=O)C6CC6)CC5C=CCCCOCC(NC(=O)OC(C)C)C(=O)N4C3)nc(-c3ccc(N(C)C)cc3)cc2c1 (stereo not shown) [Compound 109]	< 50 nM
CN1CCC/C=C\[C@@H]2C[C@@]2(C(=O)NS(=O)(=O)C2CC2)NC(=O)[C@@H]2C[C@@H](Oc3nccc4ccccc34)CN2C(=O)[C@@H](NC(=O)OC(C)(C)C)C1 [Compound 147]	< 50 nM
COc1ccc2c(OC3CC4C(=O)NC5(C(=O)NS(=O)(=O)C6CC6)CC5C=CCCCCCC(NC(=O)NC(C)(C)C)C(=O)N4C3)nccc2c1 (stereo not shown) [Compound 135]	< 50 nM
COc1ccc2c(OC3CC4C(=O)NC5(C(=O)NS(=O)(=O)C6CC6)CC5C=CCCCCCC(NC(=O)OC(C)(C)C)C(=O)N4C3)nccc2c1OC (stereo not shown) [Compound 134]	< 50 nM
COc1ccc2c(OC3CC4C(=O)NC5(C(=O)NS(=O)(=O)C6CC6)CC5C=CCCCOCC(NC(=O)OCC(C)(C)C)C(=O)N4C3)nc(-c3ccccc3)cc2c1 (stereo not shown) [Compound 95]	< 50 nM
CC(C)(OC(=O)NC1CCCCCC=CC2CC2(C(=O)NS(=O)(=O)C2CC2)NC(=O)C2CC(Oc3nccc4ccccc34)CN2C1=O)C(Cl)(Cl)Cl (stereo not shown) [Compound 124]	< 50 nM
COc1ccc2c(OC3CC4C(=O)NC5(C(=O)NS(=O)(=O)C6CC6)CC5C=CCCCOCC(NC(=O)NC(C)(C)C)C(=O)N4C3)nccc2c1 (stereo not shown) [Compound 86]	< 50 nM
COc1ccc2c(OC3CC4C(=O)NC5(C(=O)NS(=O)(=O)C6CC6)CC5C=CCCCOCC(NC(=O)N5CCCC5)C(=O)N4C3)nc(-c3ccc(N(C)C)cc3)cc2c1 (stereo not shown) [Compound 111]	< 50 nM
COc1ccc2c(OC3CC4C(=O)NC5(C(=O)NS(=O)(=O)C6CC6)CC5C=CCOCCCC(NC(=O)NC(C)(C)C)C(=O)N4C3)nc(-c3ccccc3)cc2c1 (stereo not shown) [Compound 102]	< 50 nM
COc1ccc2c(OC3CC4C(=O)NC5(C(=O)NS(=O)(=O)C6CC6)CC5C=CCCCOCC(NC(=O)OC5CCCC5)C(=O)N4C3)nccc2c1 (stereo not shown) [Compound 90]	< 50 nM
COc1ccc2c(OC3CC4C(=O)NC5(C(=O)NS(=O)(=O)C6CC6)CC5C=CCCCOCC(NC(=O)NC5CCCC5)C(=O)N4C3)nccc2c1 (stereo not shown) [Compound 87]	< 50 nM
O=CNC1CCCCCC=CC2CC2(C(=O)NS(=O)(=O)C2CC2)NC(=O)C2CC(Oc3nccc4ccccc34)CN2C1=O (stereo not shown) [Compound 119]	< 50 nM
COc1ccc2c(OC3CC4C(=O)NC5(C(=O)NS(=O)(=O)C6CC6)CC5C=CCOCCCC(NC(=S)NC5CC5)C(=O)N4C3)nc(-c3ccccc3)cc2c1 (stereo not shown) [Compound 104]	< 50 nM
CC(C)(C)CC(C)(C)NC(=O)NC1CCCCCC=CC2CC2(C(=O)NS(=O)(=O)C2CC2)NC(=O)C2CC(Oc3nccc4ccccc34)CN2C1=O (stereo not shown) [Compound 129]	< 50 nM
COc1cccc2c(OC3CC4C(=O)NC5(C(=O)NS(=O)(=O)C6CC6)CC5C=CCCCCCC(NC(=O)OC(C)(C)C)C(=O)N4C3)nccc12 (stereo not shown) [Compound 133]	< 50 nM
CCC1(S(=O)(=O)NC(=O)C23CC2C=CCCCSCC(NC(=O)OC(C)(C)C)C(=O)N2CC(Oc4nccc5cc(OC)ccc45)CC2C(=O)N3)CC1 (stereo not shown) [Compound 121]	< 50 nM

Structure (SMILES)	IC50
COc1ccc2c(OC3CC4C(=O)NC5(C(=O)NS(=O)(=O)C6CC6)CC5C=CCOCCCC(NC(=O)N5CCNC5=O)C(=O)N4C3)nc(-c3ccccc3)cc2c1 (stereo not shown) [Compound 106]	< 50 nM
COc1ccc2c(OC3CC4C(=O)NC5(C(=O)NS(=O)(=O)C6(C)CC6)CC5C=CCCCSCC(NC(=O)OC(C)(C)C)C(=O)N4C3)nccc2c1 (stereo not shown) [Compound 115]	< 50 nM
COc1ccc2c(OC3CC4C(=O)NC5(C(=O)NS(=O)(=O)C6CC6)CC5C=CCCCOCC(NC(=O)NC(C)(C)C)C(=O)N4C3)nc(-c3ccccc3)cc2c1 (stereo not shown) [Compound 92]	< 50 nM
COc1ccc2c(O[C@@H]3C[C@H]4C(=O)N[C@]5(C(=O)NS(=O)(=O)C6CC6)C[C@H]5/C=C\CCCOC[C@H](NC(=O)OC(C)(C)C)C(=O)N4C3)nccc2c1 [Compound 85, (1S,4R,6S,14S,18R)-[7-cis-4-Cyclopropanesulfonylaminocarbonyl-18-(6-methoxy-isoquinolin-1-yloxy)-2,15-dioxo-12-oxa-3,16-diaza-tricyclo[14.3.0.0^4,6]nonadec-7-en-14-yl]-carbamic acid, tert-butyl ester]	< 50 nM
COc1ccc2c(O[C@@H]3C[C@H]4C(=O)N[C@]5(C(=O)NS(=O)(=O)C6CC6)C[C@H]5/C=C\CCCSC(C)(C)[C@H](NC(=O)OC(C)(C)C)C(=O)N4C3)nccc2c1 [Compound 80, (1S,4R,6S,14R,18R)-[7-cis-4-Cyclopropanesulfonylaminocarbonyl-13,13-dimethyl-18-(6-methoxyisoquinolin-1-yloxy)-2,15-dioxo-12-thia-3,16-diaza-tricyclo[14.3.0.0^4,6]nonadec-7-en-14-yl]carbamic acid, tert-butyl ester]	< 50 nM
CC(C)(C)OC(=O)N[C@H]1CN(S(=O)(=O)c2ccccc2[N+](=O)[O-])CCC/C=C\[C@@H]2C[C@@]2(C(=O)NS(=O)(=O)C2CC2)NC(=O)[C@@H]2C[C@@H](Oc3nccc4ccccc34)CN2C1=O [Compound 145]	< 50 nM
COc1ccc2c(OC3CC4C(=O)NC5(C(=O)NS(=O)(=O)C6CC6)CC5C=CCCCSCC(N)C(=O)N4C3)nccc2c1 (stereo not shown) [Compound 117]	50 to 500 nM
CC(C)(C)OC(=O)N[C@H]1CNCCC/C=C\[C@@H]2C[C@@]2(C(=O)NS(=O)(=O)C2CC2)NC(=O)[C@@H]2C[C@@H](Oc3nccc4ccccc34)CN2C1=O [Compound 151]	< 50 nM
COc1ccc2c(OC3CC4C(=O)NC5(C(=O)NS(=O)(=O)C6CC6)CC5C=CCOCCCC(NC(=O)Nc5ccc(C#N)cc5)C(=O)N4C3)nc(-c3ccccc3)cc2c1 (stereo not shown) [Compound 105]	< 50 nM
COc1ccc2c(OC3CC4C(=O)NC5(C(=O)NS(=O)(=O)C6CC6)CC5C=CCCCSC(C)(C)C(NC(=O)NC5CCCC5)C(=O)N4C3)nccc2c1 (stereo not shown) [Compound 82]	< 50 nM
COc1ccc2c(OC3CC4C(=O)NC5(C(=O)NS(=O)(=O)C6CC6)CC5C=CCOCCCC(NC(=O)OC(C)(C)C)C(=O)N4C3)nc(-c3ccc(N(C)C=O)cc3)cc2c1 (stereo not shown) [Compound 114]	< 50 nM
COc1ccc2c(OC3CC4C(=O)NC5(C(=O)NS(=O)(=O)C6CC6)CC5C=CCCCSC(C)(C)C(N)C(=O)N4C3)nccc2c1 (stereo not shown) [Compound 83]	500 to 5000 nM
CC(C)(C)OC(=O)N[C@H]1CN(S(C)(=O)=O)CCC/C=C\[C@@H]2C[C@@]2(C(=O)NS(=O)(=O)C2CC2)NC(=O)[C@@H]2C[C@@H](Oc3nccc4ccccc34)CN2C1=O [Compound 153]	< 50 nM
CC(C)(C)NC(=O)N[C@H]1CCCCC/C=C\[C@@H]2C[C@@]2(C(=O)NS(=O)(=O)C2CC2)NC(=O)[C@@H]2C[C@@H](Oc3nccc4ccccc34)CN2C1=O [Compound 126]	< 50 nM
CCSC(=O)NC1CCCCCC=CC2CC2(C(=O)NS(=O)(=O)C2CC2)NC(=O)C2CC(Oc3nccc4ccccc34)CN2C1=O (stereo not shown) [Compound 118]	< 50 nM
COC(=O)N1CCC/C=C\[C@@H]2C[C@@]2(C(=O)NS(=O)(=O)C2CC2)NC(=O)[C@@H]2C[C@@H](Oc3nccc4ccccc34)CN2C(=O)[C@@H](NC(=O)OC(C)(C)C)C1 [Compound 148]	< 50 nM
COc1ccc2c(OC3CC4C(=O)NC5(C(=O)NS(=O)(=O)C6CC6)CC5C=CCCCOCC(NC(=O)OC5CCCC5)C(=O)N4C3)nc(-c3ccc(N(C)C)cc3)cc2c1 (stereo not shown) [Compound 110]	< 50 nM
COc1ccc2c(OC3CC4C(=O)NC5(C(=O)NS(=O)(=O)C6CC6)CC5C=CCCCSC(C)(C)C(NC(=O)NC(C)(C)C)C(=O)N4C3)nccc2c1 (stereo not shown) [Compound 81]	< 50 nM
CC(C)NC(=O)NC1CCCCCC=CC2CC2(C(=O)NS(=O)(=O)C2CC2)NC(=O)C2CC(Oc3nccc4ccccc34)CN2C1=O (stereo not shown) [Compound 128]	< 50 nM
COc1ccc2c(OC3CC4C(=O)NC5(C(=O)NS(=O)(=O)C6CC6)CC5C=CCCCOCC(NC(=O)OC5CCCC5)C(=O)N4C3)nc(-c3ccccc3)cc2c1 (stereo not shown) [Compound 94]	< 50 nM
COc1ccc2c(OC3CC4C(=O)NC5(C(=O)NS(=O)(=O)C6CC6)CC5C=CCCCOCC(NC(=O)OC(C)C)C(=O)N4C3)nc(-c3ccccc3)cc2c1 (stereo not shown) [Compound 96]	< 50 nM
CC1(COC(=O)NC2CCCCCC=CC3CC3(C(=O)NS(=O)(=O)C3CC3)NC(=O)C3CC(Oc4nccc5ccccc45)CN3C2=O)CC1 (stereo not shown) [Compound 122]	< 50 nM
CC(C)(C)OC(=O)NC1CCCCCC=CC2CC2(C(=O)NS(=O)(=O)C2CC2)NC(=O)C2CC(Oc3nccc4c(Cl)cccc34)CN2C1=O (stereo not shown) [Compound 130]	< 50 nM
